This is an account of results in paper PMC7015794 (Biochemistry, 2020).

Molecules are shown by their SMILES.

The target in experiment [1] is T1, (1,3)-β-D-glucan synthase (GS), catalytic subunit Fks1p (Saccharomyces cerevisiae, UniProt P38631). Description: GS activity assay with […] UDP-Glc. The class given is biochemical.
Experiment [2] concerns the target T1, (1,3)-β-D-glucan synthase (GS), catalytic subunit Fks1p. Description: GS activity assay. In kind it is biochemical.

T1 sequence (P38631 whole entry): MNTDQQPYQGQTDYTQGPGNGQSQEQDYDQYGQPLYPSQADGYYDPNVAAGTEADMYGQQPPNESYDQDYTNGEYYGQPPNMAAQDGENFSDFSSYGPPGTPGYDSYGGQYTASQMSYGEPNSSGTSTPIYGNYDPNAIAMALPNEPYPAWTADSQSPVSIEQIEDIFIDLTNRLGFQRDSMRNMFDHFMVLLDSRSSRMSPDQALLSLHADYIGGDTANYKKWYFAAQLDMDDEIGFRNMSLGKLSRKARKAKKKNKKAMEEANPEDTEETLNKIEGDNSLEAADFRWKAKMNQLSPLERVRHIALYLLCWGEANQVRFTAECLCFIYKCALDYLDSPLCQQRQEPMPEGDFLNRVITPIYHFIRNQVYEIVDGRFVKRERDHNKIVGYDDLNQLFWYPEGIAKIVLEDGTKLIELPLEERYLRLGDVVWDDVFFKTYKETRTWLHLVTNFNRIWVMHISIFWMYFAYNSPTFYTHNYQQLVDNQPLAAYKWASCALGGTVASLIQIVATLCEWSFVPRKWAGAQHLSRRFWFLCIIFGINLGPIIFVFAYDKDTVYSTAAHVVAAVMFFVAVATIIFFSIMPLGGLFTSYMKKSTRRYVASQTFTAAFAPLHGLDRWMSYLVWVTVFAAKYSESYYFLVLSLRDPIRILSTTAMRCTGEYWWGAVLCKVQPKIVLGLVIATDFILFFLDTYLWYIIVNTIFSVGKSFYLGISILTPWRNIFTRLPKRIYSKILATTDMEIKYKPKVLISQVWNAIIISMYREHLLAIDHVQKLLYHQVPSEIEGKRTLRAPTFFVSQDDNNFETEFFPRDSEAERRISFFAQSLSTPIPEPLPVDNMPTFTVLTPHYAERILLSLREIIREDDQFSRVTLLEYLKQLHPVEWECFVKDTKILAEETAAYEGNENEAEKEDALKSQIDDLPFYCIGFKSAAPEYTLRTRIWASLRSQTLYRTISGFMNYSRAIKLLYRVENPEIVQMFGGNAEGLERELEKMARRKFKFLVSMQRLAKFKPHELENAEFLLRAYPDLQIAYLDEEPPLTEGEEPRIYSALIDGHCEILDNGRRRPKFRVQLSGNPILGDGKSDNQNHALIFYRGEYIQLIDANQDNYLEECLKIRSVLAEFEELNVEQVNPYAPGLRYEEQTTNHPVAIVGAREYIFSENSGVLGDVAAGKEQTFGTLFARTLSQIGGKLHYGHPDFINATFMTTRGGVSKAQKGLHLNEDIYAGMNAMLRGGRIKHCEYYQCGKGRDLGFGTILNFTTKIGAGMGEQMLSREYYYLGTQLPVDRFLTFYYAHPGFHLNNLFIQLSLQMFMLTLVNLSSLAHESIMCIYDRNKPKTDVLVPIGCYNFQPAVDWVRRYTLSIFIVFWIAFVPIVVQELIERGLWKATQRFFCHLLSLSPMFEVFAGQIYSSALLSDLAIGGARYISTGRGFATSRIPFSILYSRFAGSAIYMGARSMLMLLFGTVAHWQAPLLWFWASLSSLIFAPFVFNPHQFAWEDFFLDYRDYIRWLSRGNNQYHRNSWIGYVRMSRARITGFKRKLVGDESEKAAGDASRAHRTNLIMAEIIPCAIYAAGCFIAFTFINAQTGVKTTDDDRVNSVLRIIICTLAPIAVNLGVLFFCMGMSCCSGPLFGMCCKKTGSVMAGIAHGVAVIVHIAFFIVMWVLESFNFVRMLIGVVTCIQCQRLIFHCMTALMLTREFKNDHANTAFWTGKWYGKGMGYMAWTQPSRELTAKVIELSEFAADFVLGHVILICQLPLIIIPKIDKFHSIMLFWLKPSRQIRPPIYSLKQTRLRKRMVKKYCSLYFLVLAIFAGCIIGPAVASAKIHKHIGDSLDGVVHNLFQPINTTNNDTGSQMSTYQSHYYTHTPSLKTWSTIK
T1 sequence (P06780 2-206, further chain): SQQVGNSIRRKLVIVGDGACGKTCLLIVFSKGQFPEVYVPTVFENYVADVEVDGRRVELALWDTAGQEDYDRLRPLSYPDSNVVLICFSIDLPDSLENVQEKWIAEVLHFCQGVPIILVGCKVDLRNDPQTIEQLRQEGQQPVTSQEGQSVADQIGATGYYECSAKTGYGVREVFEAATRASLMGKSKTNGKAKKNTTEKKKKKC

For the molecule `O=c1ccn([C@@H]2O[C@H](COP(=O)(O)OP(=O)(O)O[C@H]3O[C@H](CO)[C@@H](O)C[C@H]3O)[C@@H](O)[C@H]2O)c(=O)[nH]1` [UDP-3’-dGlc], 2400 ± 200 µM corresponded to half-maximal inhibition in experiment [1] (IC50).

The molecule `CC[C@H](C)C[C@H](C)CCCCCCCCC(=O)N[C@H]1C[C@@H](O)[C@@H](NCCN)NC(=O)[C@@H]2[C@@H](O)CCN2C(=O)[C@H]([C@H](O)CCN)NC(=O)[C@H]([C@H](O)[C@@H](O)c2ccc(O)cc2)NC(=O)[C@@H]2C[C@@H](O)CN2C(=O)[C@H]([C@@H](C)O)NC1=O` [CFN, caspofungin] showed an IC50 in experiment [2] of 0.238 µM. This counts as sub-micromolar.

The molecule `O=c1ccn([C@@H]2O[C@H](COP(=O)(O)OP(=O)(O)O[C@H]3O[C@H](CO)[C@@H](O)[C@H](F)[C@H]3O)[C@@H](O)[C@H]2O)c(=O)[nH]1` [UDP-3’-F-Glc] yielded a concentration for half-maximal inhibition (IC50) in experiment [1] of 5300 ± 1000 µM.

By IC50 is commonly meant the concentration at which inhibition is half-maximal. The low end stands for inhibition by little substance, the high end for a need for much substance.
